This note sets out measurements from patent US10925823B2, “Synergistic antioxidant compositions” (The Procter & Gamble Company, priority 2018, dated 2021).

A short description of this assay: Oxygen Radical Absorbance Capacity (ORAC) Peroxynitrite Assay. Particulars: Trolox equivalent; SIN-1 as peroxynitrite source, dihydrorhodamine-123 probe, 37° C.; FIG. 4. The text has this:
The ORAC assay is the most common method for assessing antioxidant activity. It is based on evaluating the capacity of a test material to protect a probe (e.g., a chromagen) from its damage by oxygen radicals (in this case, peroxynitrite). Results are expressed as micromole Trolox Equivalency per gram of the test material:
This methodology is further discussed in: “Development and validation of an improved oxygen radical absorbance capacity assay using fluorescein as the fluorescent probe.”; Ou, Boxin, Maureen Hampsch-Woodill, and Ronald L. Prior. Journal of agricultural and food chemistry 49.10 (2001): 4619-4626 incorporated herein by reference; and further in “Development and validation of oxygen radical absorbance capacity assay for lipophilic antioxidants using randomly methylated β-cyclodextrin as the solubility enhancer.”, Huang, Dejian, et al. Journal of Agricultural and Food Chemistry 50.7 (2002): 1815-1821, incorporated herein by reference.
Experimental Methodology: The ORAC Peroxynitrite measures the peroxynitrite radical. […] Dihydrorhodamine-123 is the chosen target protein, whose loss of fluorescence (with excitation at 485 nm and emission at 528 nm) is an indication of the extent of damage from its reaction with the peroxynitrite radical. […] Kinetic fluorescence profile is detected using Biotek plate reader with excitation at 485 nm and emission at 528 nm, at 37° C. […]

In the case of `[O-]n1ccccc1=S.[O-]n1ccccc1=S.[Zn+2]` [ZPT, zinc salt of 1-hydroxy-2-pyridinethione], the “ORAC peroxynitrite antioxidant activity” value is listed as “only individual material that showed appreciable activity”.
